Positions of bridges follow the written chain, without caps; N, C: chain ends. Non-standard residues stand in square brackets, D forms with d. Residues, ends and D or L forms follow the SMILES beside them. *: point of attachment. FITC = O=C1OC2(c3ccc(O)cc3Oc3cc(O)ccc32)c2ccc(NC(=S)*)cc21; R8 = C=CCCCCCC[C@@](C)(N)C(=O)O; S5 = C=CCCC[C@](C)(N)C(=O)O; Nle = CCCC[C@H](N)C(=O)O; Ahx = NCCCCCC(=O)O
Tests used:
[1] = Circular dichroism (CD) spectroscopy, % helicity; assay type: physicochemical; settings: peptide 50 μM in PBS pH 7.4, room temperature, MRE at 222 nm converted by Equation S2
Experimental: Circular dichroism (CD): CD spectra were obtained using a JASCO J-810 CD spectrometer. […] Percentage helicities can be calculated for α-helical peptides. […] […] Equation S1. MRE calculation. […] To 100 μL of peptide solution was added 100 11

Molecule	% peptide remaining after 4 h with chymotrypsin	percentage helicity at 222 nm from mean residue ellipticity [1]
CCCC[C@@H]1NC(=O)[C@H](CCCNC(=N)N)NC(=O)[C@H](C)NC(=O)[C@H](Cc2ccc(O)cc2)NC(=O)[C@@H](NC(=O)[C@H](CCCCN)NC(=O)[C@H](C)NC(=O)CCCCCNC(=S)Nc2ccc3c(c2)C(=O)OC32c3ccc(O)cc3Oc3cc(O)ccc32)CCCCCC#CC#CCCCCC[C@@H](C(=O)N[C@@H](CC(C)C)C(=O)N[C@@H](CCCCN)C(=O)N[C@@H](CCC(=O)O)C(=O)N[C@H](C(=O)N[C@@H](C)C(=O)N[C@@H](CCCCN)C(N)=O)[C@@H](C)CC)NC(=O)[C@H](CCCNC(=N)N)NC(=O)CNC1=O	> 92%	–
CCCC[C@@H]1NC(=O)[C@H](CCCNC(=N)N)NC(=O)[C@H](C)NC(=O)[C@H](Cc2ccc(O)cc2)NC(=O)[C@](C)(NC(=O)[C@H](CCCCN)NC(=O)[C@H](C)NC(=O)CCCCCNC(=S)Nc2ccc3c(c2)C(=O)OC32c3ccc(O)cc3Oc3cc(O)ccc32)CCCCCC/C=C\CCC[C@@](C)(C(=O)N[C@@H](CC(C)C)C(=O)N[C@@H](CCCCN)C(=O)N[C@@H](CCC(=O)O)C(=O)N[C@H](C(=O)N[C@@H](C)C(=O)N[C@@H](CCCCN)C(N)=O)[C@@H](C)CC)NC(=O)[C@H](CCCNC(=N)N)NC(=O)CNC1=O ({FITC-Ahx}-AK[R8]YAR[Nle]GR[S5]LKEIAK-NH2; staple (Z) 3-10)	> 92%	–
FTU-Ahx-AKR8YAR(Nle)GRR8LKEIAK-NH2 (sidechain bridge or staple) [compound 34, diyne-girder stapled T-STAR peptide, C16 bridge, RR]	–	33%
CCCC[C@@H]1NC(=O)[C@H](CCCNC(=N)N)NC(=O)[C@H](C)NC(=O)[C@H](Cc2ccc(O)cc2)NC(=O)[C@](C)(NC(=O)[C@H](CCCCN)NC(=O)[C@H](C)NC(=O)CCCCCNC(=S)Nc2ccc3c(c2)C(=O)OC32c3ccc(O)cc3Oc3cc(O)ccc32)CCCCCC/C=C/CCC[C@@](C)(C(=O)N[C@@H](CC(C)C)C(=O)N[C@@H](CCCCN)C(=O)N[C@@H](CCC(=O)O)C(=O)N[C@H](C(=O)N[C@@H](C)C(=O)N[C@@H](CCCCN)C(N)=O)[C@@H](C)CC)NC(=O)[C@H](CCCNC(=N)N)NC(=O)CNC1=O ({FITC-Ahx}-AK[R8]YAR[Nle]GR[S5]LKEIAK-NH2; staple (E) 3-10)	> 92%	–
FTU-Ahx-AKR7YAR(Nle)GRR7LKEIAK-NH2 (sidechain bridge or staple) [compound 30, diyne-girder stapled T-STAR peptide, C14 bridge, RR]	–	40%
CCCC[C@@H]1NC(=O)[C@H](CCCNC(=N)N)NC(=O)[C@H](C)NC(=O)[C@H](Cc2ccc(O)cc2)NC(=O)[C@@](C)(NC(=O)[C@H](CCCCN)NC(=O)[C@H](C)NC(=O)CCCCCNC(=S)Nc2ccc3c(c2)C(=O)OC32c3ccc(O)cc3Oc3cc(O)ccc32)CCCCCC#CC#CCCCCC[C@@](C)(C(=O)N[C@@H](CC(C)C)C(=O)N[C@@H](CCCCN)C(=O)N[C@@H](CCC(=O)O)C(=O)N[C@H](C(=O)N[C@@H](C)C(=O)N[C@@H](CCCCN)C(N)=O)[C@@H](C)CC)NC(=O)[C@H](CCCNC(=N)N)NC(=O)CNC1=O	> 92%	–

Source: publication PMC10946806, “Development of Bifunctional, Raman Active Diyne‐Girder Stapled α‐Helical Peptides” (Chemistry (Weinheim an Der Bergstrasse, Germany), 2023)
